Here are results for two compounds from paper PMC9944867, “Mechanistic in vitro studies indicate that the clinical drug–drug interactions between protease inhibitors and rosuvastatin are driven by inhibition of intestinal BCRP and hepatic OATP1B1 with minimal contribution from OATP1B3, NTCP and OAT3” (Pharmacology Research & Perspectives, 2023).

Several values for one entry are separate records, joined by “and”; a condition that tells them apart may be missing. Identical values can stand only once. Like-named read-outs stand apart in the source and are kept apart here.

For one test, the target named is T1, human OAT3 (SLC22A8) (Homo sapiens, UniProt Q8TCC7).
T1 construct: host or cells: HEK293 TransportoCells
T1 sequence (Q8TCC7 1-542): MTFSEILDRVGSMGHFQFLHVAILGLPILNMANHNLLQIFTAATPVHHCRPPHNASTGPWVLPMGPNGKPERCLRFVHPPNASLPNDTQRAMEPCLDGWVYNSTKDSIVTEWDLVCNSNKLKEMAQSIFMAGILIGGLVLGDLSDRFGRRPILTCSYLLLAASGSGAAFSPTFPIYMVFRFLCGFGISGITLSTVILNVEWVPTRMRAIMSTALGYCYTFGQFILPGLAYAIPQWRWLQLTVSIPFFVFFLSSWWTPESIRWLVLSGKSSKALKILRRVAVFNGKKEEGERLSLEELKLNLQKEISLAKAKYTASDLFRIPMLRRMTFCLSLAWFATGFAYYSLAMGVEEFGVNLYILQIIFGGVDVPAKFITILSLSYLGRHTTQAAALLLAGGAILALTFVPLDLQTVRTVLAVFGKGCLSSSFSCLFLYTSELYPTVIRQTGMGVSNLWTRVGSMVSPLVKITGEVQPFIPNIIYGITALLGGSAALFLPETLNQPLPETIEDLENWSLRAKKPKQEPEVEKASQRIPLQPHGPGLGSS
The test is described as follows: OAT3 single concentration inhibition screen in HEK293 cells. The following applies: ≥10x unbound [Cmax]: atazanavir 15 μM, darunavir 10 μM, lopinavir 3 μM, ritonavir 0.1 μM; probe 1 μM. It counts as cell-based.

For a further test, the target named is T2, human NTCP (SLC10A1) (Homo sapiens, UniProt Q14973).
T2 construct: host or cells: HEK293 TransportoCells
T2 sequence (Q14973 1-349): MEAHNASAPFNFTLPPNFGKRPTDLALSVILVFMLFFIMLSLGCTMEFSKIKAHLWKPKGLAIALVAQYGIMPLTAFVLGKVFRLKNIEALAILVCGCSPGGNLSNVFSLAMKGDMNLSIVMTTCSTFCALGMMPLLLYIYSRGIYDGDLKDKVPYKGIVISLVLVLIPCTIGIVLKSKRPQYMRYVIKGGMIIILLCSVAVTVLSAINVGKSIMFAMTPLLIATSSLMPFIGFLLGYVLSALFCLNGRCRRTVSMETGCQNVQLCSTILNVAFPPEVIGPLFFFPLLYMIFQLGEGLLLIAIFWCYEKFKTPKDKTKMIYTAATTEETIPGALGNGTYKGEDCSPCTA
The test is described as follows: NTCP single concentration inhibition screen in HEK293 cells. The format is cell-based. Conditions: ≥10x [Iin max u]: atazanavir 50 μM, darunavir 15 μM, lopinavir 5 μM, ritonavir 0.3 μM; [3H]-taurocholic acid 1 μM.

The next test deals with T3, BCRP (Homo sapiens, UniProt Q9UNQ0).
T3 sequence (Q9UNQ0 1-655): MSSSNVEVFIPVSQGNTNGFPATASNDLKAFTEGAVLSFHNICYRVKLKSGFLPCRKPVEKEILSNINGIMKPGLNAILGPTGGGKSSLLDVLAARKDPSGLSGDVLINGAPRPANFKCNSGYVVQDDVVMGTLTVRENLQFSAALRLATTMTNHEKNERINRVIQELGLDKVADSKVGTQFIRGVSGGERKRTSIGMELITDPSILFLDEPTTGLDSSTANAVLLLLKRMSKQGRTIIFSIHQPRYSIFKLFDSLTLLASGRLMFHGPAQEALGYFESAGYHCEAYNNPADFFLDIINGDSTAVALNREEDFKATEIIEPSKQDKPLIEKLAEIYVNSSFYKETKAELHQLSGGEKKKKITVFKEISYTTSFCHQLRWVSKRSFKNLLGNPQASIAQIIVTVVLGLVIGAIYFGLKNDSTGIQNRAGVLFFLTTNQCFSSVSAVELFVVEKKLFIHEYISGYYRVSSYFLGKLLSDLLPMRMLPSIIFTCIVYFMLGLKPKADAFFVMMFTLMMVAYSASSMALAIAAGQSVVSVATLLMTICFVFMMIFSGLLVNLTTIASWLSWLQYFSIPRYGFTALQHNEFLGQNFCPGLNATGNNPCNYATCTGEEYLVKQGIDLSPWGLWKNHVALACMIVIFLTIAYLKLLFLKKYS
The test is described as follows: Caco-2 unidirectional (B-A) BCRP inhibition assay, [3H]-estrone 3-sulfate transport (IC50 determination). The procedure:
The methodology used was adapted from the previously validated Caco‐2 unidirectional (basolateral to apical; B‐A) BCRP inhibition assay.[13]
The BCRP inhibition experiments were performed between day 18 to 22 post‐seeding. […] After pre‐incubation, transport buffer was removed and the appropriate donor solutions were added to the basolateral donor compartment. […] Receiver solutions (final DMSO concentration of ≤1 % v/v) in transport buffer containing either the corresponding concentration of test inhibitor or DMSO (vehicle control), and the fluorescent cell monolayer integrity marker lucifer yellow (100 μM), were added to the apical compartments (total volume = 90 μL). Incubations were conducted in triplicate wells per assay condition in a heated incubator at 37°C for 90 min. Following the incubation, the amount (pmol) of [^3H]‐estrone 3‐sulfate appearing in the receiver compartment was determined by sampling (50 μL) into a white walled clear bottomed multiwell plate, to which scintillation fluid (200 μL) was added, and then samples counted on a Microbeta2 liquid scintillation counter (PerkinElmer). The quantified amount (derived from disintegrations per minute; DPM) of [^3H]‐estrone 3‐sulfate was subsequently converted to concentration (pmol/mL) and used to calculate apparent permeability (Papp), as described previously.[18]
Background: Passage across Caco-2 layers is used to estimate intestinal permeability.

Another test relates to OATP1B3. Also on record: method as in Vildhede et al.[33]. Conditions: ref Vildhede et al.[33], cited from earlier work.
Where [1] appears, read: IC50 mean (BCRP), BCRP-mediated B-A transport of [3H]-estrone 3-sulfate (1 μM), Caco-2, mean (±SD) of occasions, IC50 equates to Ki.

In the case of `COC(=O)N[C@H](C(=O)N[C@@H](Cc1ccccc1)[C@@H](O)CN(Cc1ccc(-c2ccccn2)cc1)NC(=O)[C@@H](NC(=O)OC)C(C)(C)C)C(C)(C)C` [atazanavir], the “Inhibition of OAT3-mediated [3H]-estrone 3-sulfate transport, single concentration screen” value on human OAT3 (SLC22A8) is “neither atazanavir, darunavir, lopinavir nor ritonavir inhibited OAT3 transport”. Further, the “Inhibition of NTCP-mediated probe substrate transport, single concentration screen” value at human NTCP (SLC10A1) is reported as “produced inhibition”. Also, the IC50 on BCRP was 49.8 µM and 30.3 µM and 51.5 µM and 37.1 µM; against BCRP (setting [1]), 42.2 µM. For the same compound, the “Published IC50/Ki (OATP1B3)” value in the test on OATP1B3 (probe substrate atorvastatin) is recorded as 7.3 (atorvastatin) μM.

Take `Cc1cccc(C)c1OCC(=O)N[C@@H](Cc1ccccc1)[C@@H](O)C[C@H](Cc1ccccc1)NC(=O)[C@H](C(C)C)N1CCCNC1=O` [lopinavir]: the “Inhibition of OAT3-mediated [3H]-estrone 3-sulfate transport, single concentration screen” value at human OAT3 (SLC22A8) is on record as “neither atazanavir, darunavir, lopinavir nor ritonavir inhibited OAT3 transport”. The “Inhibition of NTCP-mediated probe substrate transport, single concentration screen” value on human NTCP (SLC10A1) is on record as “produced inhibition”. In addition, the half-inhibitory concentration (IC50) was 12.7 µM and 18.3 µM and 15.6 µM against BCRP; 15.5 µM on BCRP (setting [1]). Further, the “Inhibition of OATP1B3, published” value in the test on OATP1B3 (tested up to 10 μM) is recorded as “no inhibition”.

In general, IC50 refers to the concentration that gives 50% inhibition. A higher IC50 goes with weaker potency.
